{"source": "PubChem BioAssay (NCI)", "test_system": "XF 498 CNS", "assay": "inhibition of tumour cell growth, NCI panel, 48 h", "note": "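Exposure lasted 48 hours, with cells grown in 96-well plates and compounds tested at five concentrations. The concentration for full growth arrest is given as TGI.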"}
{"smiles": "CN(C)CN(C)c1nc(N(C)C)nc(N(C)CN(C)C)n1", "values": [{"measurement": "TGI", "result": "> 100", "unit": "µM"}]}
